Patent publication US10144732B2 (BIOGEN MA INC., priority 2014, dated 2018)
Several values for one entry are separate records, joined by “and”; a condition that tells them apart may be missing. Equal entries are not always repeated. Structures can show the parent of a compound that is named as a salt.

These compounds were tested against T1, Human ATX protein (Homo sapiens, UniProt Q13822) (assay: ATX biochemical assay (FRET, FS-3 substrate)). Conditions: FRET assay, FS-3 2 μM, ATX 1.0 μg/mL, 30 minutes preincubation, 2 hours reaction at room temperature; read-out: IC50.
T1 construct: made in house
Summary of the method: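 FRET read-out: cleavage of FS-3 (2 μM final) unquenches fluorescein, measured at 485/538 nm after 2 h at room temperature. Before substrate addition, in-house-expressed human autotaxin (1.0 μg/mL) sat with compound for 30 min in pH 7.4 Tris/NaCl/KCl/CaCl2/MgCl2 buffer containing fatty acid free-BSA at 1 mg/mL.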

SMILES	IC50
O=C(O)C12CCC(C(=O)N3CCc4c(C(F)(F)F)nn(Cc5ccc(F)cc5)c4C3)(CC1)C2 [Example 5-50, 4-(1-(4-Fluorobenzyl)-3-(trifluoromethyl)-4,5,6,7-tetrahydro-1H-pyrazolo[3,4-c]pyridine-6-carbonyl)bicyclo[2.2.1]heptane-1-carboxylic acid]	≤ 100 nM
CC1CC(CC(=O)N2CCc3c(C(F)(F)F)nn(Cc4ccc(Cl)cc4F)c3C2)CCN1 (stereo not drawn) [Example 9-5, 1-(1-(4-Chloro-2-fluorobenzyl)-3-(trifluoromethyl)-4,5-dihydro-1H-pyrazolo[3,4-c]pyridin-6(7H)-yl)-2-(2-methylpiperidin-4-yl)ethanone TFA salt]	≤ 100 nM
CCOC(=O)[C@H]1CC[C@H](CC(=O)N2CCc3c(C(N)=O)nn(Cc4ccc(F)cc4)c3C2)CC1 [Example 1-42, trans-Ethyl 4-(2-(3-carbamoyl-1-(4-fluorobenzyl)-4,5-dihydro-1H-pyrazolo[3,4-c]pyridin-6(7H)-yl)-2-oxoethyl)cyclohexanecarboxylate]	> 500 nM and ≤ 10000 nM
N#Cc1ccc(Cn2nc(C(F)(F)F)c3c2CN(C(=O)C[C@H]2CC[C@@H](C(=O)O)CC2)CC3)cc1 (stereo in doubt) [Example 5-35, cis-4-(2-(1-(4-Cyanobenzyl)-3-(trifluoromethyl)-4,5-dihydro-1H-pyrazolo[3,4-c]pyridin-6(7H)-yl)-2-oxoethyl)cyclohexanecarboxylic acid]	≤ 100 nM
O=C(O)C1CCC(CC(=O)N2CCc3c(C(F)(F)F)nn(-c4ccccc4)c3C2)CC1 (stereo in doubt) [Example 5-21, cis-4-(2-Oxo-2-(1-phenyl-3-(trifluoromethyl)-4,5-dihydro-1H-pyrazolo[3,4-c]pyridin-6(7H)-yl)ethyl)cyclohexanecarboxylic acid]	> 500 nM and ≤ 10000 nM
CCOC(=O)[C@H]1CC[C@H](CC(=O)N2CCc3c(C(F)(F)F)nn(CCc4ccccc4)c3C2)CC1 [Example 1-28, trans-Ethyl 4-(2-oxo-2-(1-phenethyl-3-(trifluoromethyl)-4,5-dihydro-1H-pyrazolo[3,4-c]pyridin-6(7H)-yl)ethyl)cyclohexanecarboxylate]	100 to 250 nM
CC(C)(C)OC(=O)N1CCC(CC(=O)N2CCc3c(C(F)(F)F)nn(Cc4ccc(Cl)cc4F)c3C2)CC1 [Example 8-2, tert-Butyl 4-(2-(1-(4-chloro-2-fluorobenzyl)-3-(trifluoromethyl)-4,5-dihydro-1H-pyrazolo[3,4-c]pyridin-6(7H)-yl)-2-oxoethyl)piperidine-1-carboxylate]	≤ 100 nM
O=C(CCc1nnn[nH]1)N1CCc2c(C(F)(F)F)nn(Cc3ccc(Cl)cc3F)c2C1 [Example 1-31, 1-(1-(4-Chloro-2-fluorobenzyl)-3-(trifluoromethyl)-4,5-dihydro-1H-pyrazolo[3,4-c]pyridin-6(7H)-yl)-3-(1H-tetrazol-5-yl)propan-1-one]	≤ 100 nM
COC(=O)[C@H]1CC[C@H](N(C)C(=O)N2CCc3c(C(F)(F)F)nn(Cc4ccc(Cl)cc4F)c3C2)CC1 [Example 3-4, trans-Methyl 4-(1-(4-chloro-2-fluorobenzyl)-N-methyl-3-(trifluoromethyl)-4,5,6,7-tetrahydro-1H-pyrazolo[3,4-c]pyridine-6-carboxamido)cyclohexanecarboxylate]	100 to 250 nM
O=C(O)C1CCC(CC(=O)N2CCc3c(C(F)(F)F)nn(CC4CCCCC4)c3C2)CC1 (single isomer, unassigned) [Example 7-13, 4-(2-(1-(cyclohexylmethyl)-3-(trifluoromethyl)-4,5-dihydro-1H-pyrazolo[3,4-c]pyridin-6(7H)-yl)-2-oxoethyl)cyclohexanecarboxylic acid]	≤ 100 nM
COC(=O)[C@H]1CC[C@H](NC(=O)N2CCc3c(C(F)(F)F)nn(Cc4ccc(Cl)cc4F)c3C2)CC1 [Example 3-2, trans-Methyl 4-(1-(4-chloro-2-fluorobenzyl)-3-(trifluoromethyl)-4,5,6,7-tetrahydro-1H-pyrazolo[3,4-c]pyridine-6-carboxamido)cyclohexanecarboxylate]	100 to 250 nM
O=C(CC1C2CC3CC1CC(C(=O)O)(C3)C2)N1CCc2c(C(F)(F)F)nn(Cc3ccc(F)cc3)c2C1 (stereo not drawn) [Example 5-55]	≤ 100 nM
CCOC(=O)[C@H]1CC[C@H](CC(=O)N2CCc3c(C(F)(F)F)nn(Cc4ccc(F)cc4F)c3C2)CC1 [Example 1-50, trans-Ethyl 4-(2-(1-(2,4-difluorobenzyl)-3-(trifluoromethyl)-4,5-dihydro-1H-pyrazolo[3,4-c]pyridin-6(7H)-yl)-2-oxoethyl)cyclohexanecarboxylate]	≤ 100 nM
O=C(C[C@H]1CC[C@@H](C(=O)O)CC1)N1CCc2c(C(F)(F)F)nn(C3CCCCC3)c2C1 [Example 7-20, cis-4-(2-(1-cyclohexyl-3-(trifluoromethyl)-4,5-dihydro-1H-pyrazolo[3,4-c]pyridin-6(7H)-yl)-2-oxoethyl)cyclohexanecarboxylic acid]	> 500 nM and ≤ 10000 nM
CCCC1CC(CC(=O)N2CCc3c(C(F)(F)F)nn(Cc4ccc(F)cc4)c3C2)CCN1 (stereo not drawn) [Example 9-12, 1-(1-(4-Fluorobenzyl)-3-(trifluoromethyl)-4,5-dihydro-1H-pyrazolo[3,4-c]pyridin-6(7H)-yl)-2-(2-propylpiperidin-4-yl)ethanone acid TFA salt]	≤ 100 nM

More lines, now with the values ahead:

IC50	SMILES
250 to 500 nM	CN(C)C12CCC(C(=O)N3CCc4c(C(F)(F)F)nn(Cc5ccc(F)cc5)c4C3)(CC1)CC2 [Example 10-9, (4-(dimethylamino)bicyclo[2.2.2]octan-1-yl)(1-(4-fluorobenzyl)-3-(trifluoromethyl)-4,5-dihydro-1H-pyrazolo[3,4-c]pyridin-6(7H)-yl)methanone trifluoroacetate salt TFA salt]
≤ 100 nM	N#CC1CCN(CC(=O)N2CCc3c(C(F)(F)F)nn(Cc4ccc(F)cc4)c3C2)C1 (stereo not drawn) [Example 12-11, 1-(2-(1-(4-Fluorobenzyl)-3-(trifluoromethyl)-4,5-dihydro-1H-pyrazolo[3,4-c]pyridin-6(7H)-yl)-2-oxoethyl)pyrrolidine-3-carbonitrile TFA salt]
≤ 100 nM	O=C(CC1CC(N2CC(F)(F)C2)C1)N1CCc2c(C(F)(F)F)nn(Cc3ccc(F)cc3)c2C1 (stereo not drawn) [Example 22-2, TFA salt]
≤ 100 nM	O=C(O)C1CN(CC(=O)N2CCc3c(C(F)(F)F)nn(Cc4ccc(F)cc4)c3C2)C1 [Example 13-18, 1-(2-(1-(4-Fluorobenzyl)-3-(trifluoromethyl)-4,5-dihydro-1H-pyrazolo[3,4-c]pyridin-6(7H)-yl)-2-oxoethyl)azetidine-3-carboxylic acid TFA salt]
> 10000 nM	O=C(O)CCN1CCC(C(=O)N2CCc3c(C(F)(F)F)nn(Cc4ccc(Cl)cc4F)c3C2)C1 (stereo not drawn) [Example 15-3, 3-(3-(1-(4-chloro-2-fluorobenzyl)-3-(trifluoromethyl)-4,5,6,7-tetrahydro-1H-pyrazolo[3,4-c]pyridine-6-carbonyl)pyrrolidin-1-yl)propanoic acid]
≤ 100 nM	O=C(O)CCNCC(=O)N1CCc2c(C(F)(F)F)nn(Cc3ccc(Cl)cc3F)c2C1 [Example 13-32, 3-(2-(1-(4-Chloro-2-fluorobenzyl)-3-(trifluoromethyl)-4,5-dihydro-1H-pyrazolo[3,4-c]pyridin-6(7H)-yl)-2-oxoethylamino)propanoic acid TFA salt]
≤ 100 nM	O=C(C[C@H]1CC[C@@H](N2CC(F)(F)C2)CC1)N1CCc2c(C(F)(F)F)nn(Cc3ccc(F)cc3)c2C1 [Example 22-7, 2-(cis-4-(3,3-Difluoroazetidin-1-yl)cyclohexyl)-1-(1-(4-fluorobenzyl)-3-(trifluoromethyl)-4,5-dihydro-1H-pyrazolo[3,4-c]pyridin-6(7H)-yl)ethanone TFA salt]
≤ 100 nM	CCCC1CC(CC(=O)N2CCc3c(C(F)(F)F)nn(Cc4ccc(F)cc4)c3C2)CCN1C (stereo not drawn) [Example 10-8, 1-(1-(4-Fluorobenzyl)-3-(trifluoromethyl)-4,5-dihydro-1H-pyrazolo[3,4-c]pyridin-6(7H)-yl)-2-(1-methyl-2-propylpiperidin-4-yl)ethanone acid TFA salt]

Same assay, conditions: IC50, FRET assay, FS-3 2 μM, ATX 1.0 μg/mL, 30 minutes preincubation, 2 hours reaction at room temperature

SMILES	IC50
O=C(O)C1CC2COCC(C1)N2CC(=O)N1CCc2c(C(F)(F)F)nn(Cc3ccc(Cl)cc3F)c2C1 (stereo not drawn) [Example 13-27, 9-(2-(1-(4-Chloro-2-fluorobenzyl)-3-(trifluoromethyl)-4,5-dihydro-1H-pyrazolo[3,4-c]pyridin-6(7H)-yl)-2-oxoethyl)-3-oxa-9-azabicyclo[3.3.1]nonane-7-carboxylic acid TFA salt]	≤ 100 nM
